Experimental data as given in ChEMBL document CHEMBL1123223, “New effective gonadotropin releasing hormone antagonists with minimal potency for histamine release in vitro” (J Med Chem, 1986).
pKd: −log10 of the molar value. ≈ marks a conversion by molar mass, not a printed value.

Key:
Rattus norvegicus [1] = species: Rattus norvegicus; test: Compound was tested in vitro for its ability to inhibit histamine release from rat mast cells.; type: functional; details: read-out: ED50 (the source's name)
Rattus norvegicus [2] = species: Rattus norvegicus; test: GnRH antagonistic dose of compound for 11 rats ovulation out of total 15 using anti-ovulatory assay; type: functional
Rattus norvegicus [3] = species: Rattus norvegicus; test: GnRH antagonistic dose of compound for 8 rats ovulation out of total 10 using anti-ovulatory assay; type: functional
Rattus norvegicus [4] = species: Rattus norvegicus; test: GnRH antagonistic dose of compound for 1 rats ovulation out of total 10 using anti-ovulatory assay in experiment 1; type: functional
Rattus norvegicus [5] = species: Rattus norvegicus; test: Dissociation constant was determined in rat pituitary cells.; type: cell-based; details: pituitary gland cell
Rattus norvegicus [6] = species: Rattus norvegicus; test: GnRH antagonistic dose of compound for 0 rats ovulation out of total 10 using anti-ovulatory assay in experiment 2; type: functional
Rattus norvegicus [7] = species: Rattus norvegicus; test: GnRH antagonistic dose of compound for 9 rats ovulation out of total 20 using anti-ovulatory assay; type: functional
[8] = molecular target: T1, Gonadotropin-releasing hormone receptor (Rattus norvegicus) (UniProt P30969); test: Inhibition of GnRH-mediated LH secretion by cultured pituitary cells; type: functional, cell-based; details: Pituitary gland cell
T1 sequence (whole entry): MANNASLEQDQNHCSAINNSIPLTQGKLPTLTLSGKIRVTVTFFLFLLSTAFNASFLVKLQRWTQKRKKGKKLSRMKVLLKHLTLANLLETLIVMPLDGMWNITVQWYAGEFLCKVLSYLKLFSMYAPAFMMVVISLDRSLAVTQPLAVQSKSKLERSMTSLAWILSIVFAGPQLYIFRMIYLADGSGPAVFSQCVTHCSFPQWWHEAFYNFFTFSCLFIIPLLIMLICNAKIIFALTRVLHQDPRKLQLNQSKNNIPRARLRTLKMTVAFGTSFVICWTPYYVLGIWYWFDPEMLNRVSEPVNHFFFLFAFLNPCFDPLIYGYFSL

Rattus norvegicus [9] = species: Rattus norvegicus; test: GnRH antagonistic dose of compound for 5 rats ovulation out of total 10 using anti-ovulatory assay in experiment 1; type: functional

Row | EC50 (Rattus norvegicus [1]) [µg/mL] | Relative potency [8] | Compound | pKd (Rattus norvegicus [5]) | further results
1 | 3.7 (≈ 2.59 µM) |  | CC(=O)N[C@H](Cc1ccc2ccccc2c1)C(=O)N[C@H](Cc1ccc(Cl)cc1)C(=O)N[C@H](Cc1cccnc1)C(=O)N[C@@H](CO)C(=O)N[C@@H](CCCN=C(N)N)C(=O)N[C@H](Cc1ccc(O)cc1)C(=O)N[C@@H](CC(C)C)C(=O)N[C@@H](CCCN=C(N)N)C(=O)N1CCC[C@H]1C(=O)N[C@H](C)C(N)=O |  | ED100 (Rattus norvegicus [2]): 0.5 µg/kg
2 | 3.2 (≈ 2.17 µM) |  | COc1ccc(C(=O)CC[C@@H](NC(=O)[C@H](CCCN=C(N)N)NC(=O)[C@H](CO)NC(=O)[C@@H](Cc2cccnc2)NC(=O)[C@@H](Cc2ccc(Cl)cc2)NC(=O)[C@@H](Cc2ccc3ccccc3c2)NC(C)=O)C(=O)N[C@@H](CC(C)C)C(=O)N[C@@H](CCCN=C(N)N)C(=O)N2CCC[C@H]2C(=O)NCC(=O)O)cc1 | 9.22 | ED100 (Rattus norvegicus [4]): 1 µg/kg; ED100 (Rattus norvegicus [6]): 2.5 µg/kg
3 |  | 0.09 | CC(=O)N[C@H](Cc1ccc2ccccc2c1)C(=O)N[C@H](Cc1ccc(Cl)cc1)C(=O)N[C@H](Cc1cccnc1)C(=O)N[C@@H](CO)C(=O)N[C@@H](CCCN=C(N)N)C(=O)N[C@H](CCC(=O)O)C(=O)N[C@@H](CC(C)C)C(=O)N[C@@H](CCCN=C(N)N)C(=O)N1CCC[C@@H]1C(=O)N[C@H](C)C(=O)O | 9.80 | 

Second part, the compound before the results:

Row | Compound | EC50 (Rattus norvegicus [1]) [µg/mL] | Relative potency [8] | pKd (Rattus norvegicus [5]) | further results
4 | CC(=O)N1CCC[C@@H]1C(=O)N[C@H](Cc1ccc(F)cc1)C(=O)N[C@H](Cc1c[nH]c2ccccc12)C(=O)N[C@@H](CO)C(=O)N[C@@H](Cc1ccc(O)cc1)C(=O)N[C@H](Cc1c[nH]c2ccccc12)C(=O)N[C@@H](CC(C)C)C(=O)N[C@@H](CCCN=C(N)N)C(=O)N1CCC[C@H]1C(=O)NCC(=O)O | 39 (≈ 28.5 µM) |  |  | 
5 | CC(=O)N[C@H](Cc1ccc2ccccc2c1)C(=O)N[C@H](Cc1ccc(Cl)cc1)C(=O)N[C@H](Cc1cccnc1)C(=O)N[C@@H](CO)C(=O)N[C@@H](CCCN=C(N)N)C(=O)N[C@H](Cc1cn(Cc2ccccc2)cn1)C(=O)N[C@@H](CC(C)C)C(=O)N[C@@H](CCCN=C(N)N)C(=O)N1CCC[C@H]1C(=O)N[C@H](C)C(N)=O | 4.4 (≈ 2.94 µM) |  |  | ED100 (Rattus norvegicus [3]): 0.5 µg/kg
6 | CC(=O)N[C@H](Cc1ccc2ccccc2c1)C(=O)N[C@H](Cc1ccc(Cl)cc1)C(=O)N[C@H](Cc1cccnc1)C(=O)N[C@@H](CO)C(=O)N[C@@H](CCCN=C(N)N)C(=O)N[C@H](Cc1cn(C=O)c2ccccc12)C(=O)N[C@@H](CC(C)C)C(=O)N[C@@H](CCCN=C(N)N)C(=O)N1CCC[C@H]1C(=O)N[C@H](C)C(=O)O | 3.4 (≈ 2.29 µM) | 0.95 | 9.32 | ED100 (Rattus norvegicus [7]): 0.5 µg/kg
7 | CC(=O)N[C@H](Cc1ccc2ccccc2c1)C(=O)N[C@H](Cc1ccc(Cl)cc1)C(=O)N[C@H](Cc1cccnc1)C(=O)N[C@@H](CO)C(=O)N[C@@H](CCCN=C(N)N)C(=O)N[C@H](Cc1cccnc1)C(=O)N[C@@H](CC(C)C)C(=O)N[C@@H](CCCN=C(N)N)C(=O)N1CCC[C@H]1C(=O)N[C@H](C)C(=O)O | 2.9 (≈ 2.05 µM) | 0.91 | 9.62 | ED100 (Rattus norvegicus [6]): 1 µg/kg; ED100 (Rattus norvegicus [9]): 0.5 µg/kg
8 | CC(=O)N[C@H](Cc1ccc2ccccc2c1)C(=O)N[C@H](Cc1ccc(F)cc1)C(=O)N[C@H](Cc1c[nH]c2ccccc12)C(=O)N[C@@H](CO)C(=O)N[C@@H](Cc1ccc(O)cc1)C(=O)N[C@H](CCCN=C(N)N)C(=O)N[C@@H](CC(C)C)C(=O)N[C@@H](CCCN=C(N)N)C(=O)N1CCC[C@H]1C(=O)NCC(=O)O | 0.17 (≈ 0.118 µM) |  |  | 
